What was measured:
Settings in all cases: 72 h
Caco-2 [1] = experiment: cell viability relative to DMSO; higher = less toxic
Calu-3 [2] = experiment: as above
HepG2 [3] = experiment: as above
U2OS [4] = experiment: as above
Vero E6 [5] = experiment: as above
Caco-2 [6] = experiment: relative viability EC50 (midpoint between 100% and the lowest measured viability); higher = less toxic
Calu-3 [7] = experiment: as above
HepG2 [8] = experiment: as above
U2OS [9] = experiment: as above
Vero E6 [10] = experiment: as above
Caco-2 [11] = experiment: drug sensitivity score (DSS) for viability; higher = more toxic; extreme values may be limits of the assay
Calu-3 [12] = experiment: as above
HepG2 [13] = experiment: as above
U2OS [14] = experiment: as above
Vero E6 [15] = experiment: as above

SMILES	cell viability (Caco-2 [1]; 1 nM) [%]	cell viability (Caco-2 [1]; 10 nM) [%]	cell viability (Caco-2 [1]; 100 nM) [%]	cell viability (Caco-2 [1]; 1000 nM) [%]	cell viability (Caco-2 [1]; 10000 nM) [%]	cell viability (Calu-3 [2]; 1 nM) [%]	cell viability (Calu-3 [2]; 10 nM) [%]	cell viability (Calu-3 [2]; 100 nM) [%]	cell viability (Calu-3 [2]; 1000 nM) [%]	cell viability (Calu-3 [2]; 10000 nM) [%]	cell viability (HepG2 [3]; 1 nM) [%]	cell viability (HepG2 [3]; 10 nM) [%]	cell viability (HepG2 [3]; 100 nM) [%]	cell viability (HepG2 [3]; 1000 nM) [%]	cell viability (HepG2 [3]; 10000 nM) [%]	cell viability (U2OS [4]; 1 nM) [%]	cell viability (U2OS [4]; 10 nM) [%]	cell viability (U2OS [4]; 100 nM) [%]	cell viability (U2OS [4]; 1000 nM) [%]	cell viability (U2OS [4]; 10000 nM) [%]	cell viability (Vero E6 [5]; 1 nM) [%]	cell viability (Vero E6 [5]; 10 nM) [%]	cell viability (Vero E6 [5]; 100 nM) [%]	cell viability (Vero E6 [5]; 1000 nM) [%]	cell viability (Vero E6 [5]; 10000 nM) [%]	relative viability EC50 (Caco-2 [6]) [µM]	relative viability EC50 (Calu-3 [7]) [µM]	relative viability EC50 (HepG2 [8]) [µM]	relative viability EC50 (U2OS [9]) [µM]	relative viability EC50 (Vero E6 [10]) [µM]	drug sensitivity score (Caco-2 [11])	drug sensitivity score (Calu-3 [12])	drug sensitivity score (HepG2 [13])	drug sensitivity score (U2OS [14])	drug sensitivity score (Vero E6 [15])
C(=C\c1ccccc1)/CN1CCN(CCOC(c2ccccc2)c2ccccc2)CC1	102	87.5	101	99.1	80.5	113	99.3	98.5	92	98.8	92.7	97.3	91.3	90.4	95.4	99.1	95.5	95.8	103	100	98	97	95.8	91.7	91.6	> 10	> 10	> 10	> 10	> 10	0.6	0	0	0	0
CC(C)c1cc(C(=O)N2Cc3ccc(CN4CCN(C)CC4)cc3C2)c(O)cc1O	98.5	94.8	85.8	40	39.1	101	96.4	77.8	41.7	38.9	108	103	28.4	1.5	1.2	101	102	85.3	8.1	3.4	104	104	101	40.4	30.7	0.174	0.145	0.068	0.232	0.492	13.1	13.3	26	18.8	11
CN(C)CCOc1ccc(-c2nc(-c3ccncc3)c(-c3ccc4c(c3)CC/C4=N\O)[nH]2)cc1	106	103	99.1	101	98.6	99.6	94.5	114	115	117	110	102	96.8	39.8	3.5	93	108	99.6	116	114	102	98.5	105	112	113	> 10	> 10	0.748	> 10	> 10	0	0	12.6	0	0
CNC(=O)c1nn(C)c2c1C(C)(C)Cc1cnc(Nc3ccc(N4CCN(C)CC4)cc3)nc1-2	98.1	92.2	90.3	53	28.9	95.1	100	89	67.9	22.1	89.9	102	75.7	37.7	16.5	99.7	93.6	97.3	47.4	3.6	91.9	96.1	85	31.2	6.4	0.518	1.2	0.288	0.898	0.409	10.2	7.9	14.5	11.6	14.8
COc1cc2c(cc1C(F)(F)F)N(C(=O)Nc1cc(F)cc(-c3cccnc3)c1)CC2	96.8	104	89.8	99	98.6	102	91.7	92.9	101	93.9	99.5	90.9	103	96.4	113	100	105	97.4	103	95.9	96.9	96.1	99.4	99.9	95.1	> 10	> 10	> 10	> 10	> 10	0	0	0	0	0
Nc1ncnc2c1c(COc1cccc(Cl)c1)nn2C1CCOCC1	89.2	99.2	99.7	100	91.3	95.4	104	95.3	97.2	84.2	91.3	89.1	109	91.8	99.4	92.5	98.1	94.9	96.9	96.4	96.5	96.5	97.6	89.3	112	> 10	> 10	> 10	> 10	> 10	0	0.6	0	0	0
O=C(NO)c1cnc(N2CCN(S(=O)(=O)c3ccc4ccccc4c3)CC2)nc1	104	128	84.7	51.8	4.3	107	103	98.9	75.5	24.1	107	96.8	91.5	65.6	11.7	97.9	98.4	94.5	69.3	4.2	102	97.5	100	79.2	-0.1	0.894	1.34	1.29	1.4	1.71	11.2	7.7	8.9	9.4	8.8
O=C(Nc1c(-c2cccs2)nc2ccccn12)c1ccc(Cl)cc1	99	95	104	97.5	102	106	104	103	86.9	107	98.9	95.3	99	101	91.4	104	96.7	103	99.3	103	96.7	103	96.6	95.1	92.9	> 10	> 10	> 10	> 10	> 10	0	0	0	0	0
O=C(O)[C@H](Cc1ccccc1)NCc1ccc(Cl)cc1	107	99.6	106	101	102	92.8	91.5	93.8	98	92.5	95.6	101	97.1	93.3	103	95.2	98.7	91	98.3	94.5	99.8	102	92.9	99.4	101	> 10	> 10	> 10	> 10	> 10	0	0	0	0	0
O=C(O)c1ccc2c(c1)C(=O)N(c1cccc(Oc3ccc([N+](=O)[O-])cc3)c1)C2=O	92.5	102	98	94.7	100	94.8	96.5	104	96.8	99	104	94.8	95.5	92.9	103	95.5	99	94.6	99	94.3	94.1	99.7	98.7	90.1	100	> 10	> 10	> 10	> 10	> 10	0	0	0	0	0
O=C(c1c2ccccc2cc2ccccc12)N1CCC(N2CCC[C@@H](C(=O)N3CCOCC3)C2)CC1	84.6	100	87.3	94.3	87.2	100	99.8	105	113	117	93.7	93.2	96.9	85.3	82.3	92.7	98.9	102	103	101	97.9	93.4	93.8	89.7	99.8	> 10	> 10	> 10	> 10	> 10	0	0	1.1	0	0
Oc1ccc(-c2nc3cc(O)cc(Br)c3o2)cc1	100	112	102	98.3	92.1	110	99.1	93.8	96.9	89.1	107	102	104	102	95.3	99.1	105	96.9	109	100	110	95.6	110	101	98.9	> 10	> 10	> 10	> 10	> 10	0	0	0	0	0
O=C(O)CC/C=C\C[C@@H]1CO[C@H](c2ccccc2Cl)O[C@@H]1c1ccccc1O (racemic)	91.4	90.3	105	96.9	92.6	93.8	96.1	102	99	98.9	88.5	103	106	108	110	96.6	95	97.4	95.5	99.2	93.1	96.3	92.6	102	106	> 10	> 10	> 10	> 10	> 10	0	0	0	0	0
CNCC(O)c1ccc(O)c(O)c1 (racemic) [DL-Adrenaline]	94.8	97.8	90.1	93.7	95.7	99.8	98.3	92.4	92.7	105	105	90.8	110	99.4	113	98.7	99.6	89	99.9	103	95.3	93.2	96.6	93.8	104	> 10	> 10	> 10	> 10	> 10	0	0	0	0	0

Reference: the supplement of paper PMC13380429
